These results are taken from the supplement of paper PMC10331698.

Assay in all cases: level (log10 ratio to DMSO vehicle control); higher = higher biomarker level / cell amount than vehicle control
Holding throughout (conditions): in DMSO

Compound in assay [1]: O=S(=O)(O)CCC(F)(F)C(F)(F)C(F)(F)C(F)(F)F [4:2 Fluorotelomer sulfonic acid]
The gist of the method:
(§1)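 Readouts were ELISA for biomarkers, sulforhodamine B for cell amount and Alamar Blue for PBMC viability/proliferation. These were taken after BioMAP Diversity Plus human primary cell co-cultures were given test substances 1 h before cytokine or activator stimulation and incubated 24 h (MyoF 48 h; BT 72 h, or 6 d for secreted IgG). Each well was divided by the mean of 8 same-plate DMSO wells, log10 transformed, and blinded duplicates were averaged.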

Compound in assay [2]: C=C(C)C(=O)OCC(F)(F)C(F)(F)C(F)(F)F [2,2,3,3,4,4,4-Heptafluorobutyl methacrylate]
Put shortly: as §1

Compound in assay [3]: O=C(CC(=O)C(F)(F)C(F)(F)C(F)(F)F)c1cccs1 [(Perfluorobutyryl)-2-thenoylmethane]
The gist of the method:
as §1

Compound in assay [4]: O=C(Cl)C(F)(F)C(F)(F)C(F)(F)C(=O)Cl [Hexafluoroglutaryl chloride]
Put shortly: as §1

Compound in assay [5]: OCCCCC(F)(F)C(F)(F)C(F)(F)C(F)(F)F [4:4 Fluorotelomer alcohol]
Put shortly: as §1

Compound in assay [6]: CN(Cc1cnc2nc(N)nc(N)c2n1)c1ccc(C(=O)N[C@@H](CCC(=O)O)C(=O)O)cc1 [Methotrexate]
Put shortly:
as §1

± gives the standard deviation of the averaged measurements.

On to KF3CT:SRB, for which the “level (log10)” value in assay [1] (6700 nM) was -0.0015 ± 0.0021; in assay [1] (20000 nM), -0.0015 ± 0.0021; in assay [1] (60000 nM), 0.0035 ± 0.0092; in assay [2] (6700 nM), 0.0025 ± 0.0021; in assay [2] (20000 nM), 0.0045 ± 0.011; in assay [2] (60000 nM), -0.0075 ± 0.00071. Also, the “level (log10)” value in assay [3] (6700 nM) is -0.008; in assay [3] (20000 nM) it was -0.0105 ± 0.005; in assay [4] (6700 nM) it was -0.0015 ± 0.005; in assay [4] (20000 nM) it was 0.005 ± 0.0014; in assay [4] (60000 nM), 0.0055 ± 0.0064; in assay [5] (6700 nM), -0.02 ± 0.0085. Besides, the “level (log10)” value in assay [5] (20000 nM) is -0.011 ± 0.017; in assay [5] (60000 nM) it was 0.004 ± 0.018; in assay [6] (1500 nM) it was 0.0105 ± 0.012; in assay [6] (4400 nM), -0.002 ± 0.0057; in assay [6] (13000 nM), 0.0025 ± 0.0035; in assay [6] (40000 nM), 0.009 ± 0.021.

As to HDF3CGF:EGFR, the “level (log10)” value in assay [1] (6700 nM) is -0.0575 ± 0.093; in assay [1] (20000 nM), -0.042 ± 0.054; in assay [1] (60000 nM) it was -0.019 ± 0.079; in assay [2] (6700 nM), -0.018 ± 0.09; in assay [2] (20000 nM) it was -0.0115 ± 0.057; in assay [2] (60000 nM), -0.064 ± 0.041. Besides, the “level (log10)” value in assay [3] (6700 nM) was -0.101 ± 0.073; in assay [3] (20000 nM), -0.0595 ± 0.018; in assay [4] (6700 nM) it was -0.0195 ± 0.012; in assay [4] (20000 nM) it was -0.0115 ± 0.011; in assay [4] (60000 nM) it was -0.01 ± 0.057; in assay [5] (6700 nM), -0.0155 ± 0.0035. The “level (log10)” value in assay [5] (20000 nM) was -0.0105 ± 0.0035; in assay [5] (60000 nM), 0.0195 ± 0.05; in assay [6] (1500 nM), -0.0035 ± 0.018; in assay [6] (4400 nM) it was -0.008 ± 0.0099; in assay [6] (13000 nM) it was -0.011 ± 0.028; in assay [6] (40000 nM) it was -0.021 ± 0.027.

Turning to lMphg:CD40, the “level (log10)” value in assay [1] (6700 nM) is -0.008 ± 0.0028; in assay [1] (20000 nM), -0.015 ± 0.021; in assay [1] (60000 nM), -0.026 ± 0.011; in assay [2] (6700 nM), 0.0055 ± 0.011; in assay [2] (20000 nM), -0.005 ± 0.016; in assay [2] (60000 nM), -0.0195 ± 0.0078. In addition, the “level (log10)” value is -0.0105 ± 0.016 in assay [3] (6700 nM); -0.119 ± 0.0071 in assay [3] (20000 nM); 0.036 ± 0.037 in assay [4] (6700 nM); 0.0115 ± 0.022 in assay [4] (20000 nM); -0.002 ± 0.011 in assay [4] (60000 nM); -0.0295 ± 0.005 in assay [5] (6700 nM). Also, the “level (log10)” value in assay [5] (20000 nM) was -0.0195 ± 0.029; in assay [5] (60000 nM) it was -0.0055 ± 0.033; in assay [6] (1500 nM), 0.0125 ± 0.005; in assay [6] (4400 nM), 0.0005 ± 0.013; in assay [6] (13000 nM), -0.0155 ± 0.023; in assay [6] (40000 nM), 0.0045 ± 0.0021.

CASM3C:CXCL9/MIG: the “level (log10)” value in assay [1] (6700 nM) is -0.04 ± 0.03; in assay [1] (20000 nM), -0.0225 ± 0.013; in assay [1] (60000 nM), 0.006 ± 0.033; in assay [2] (6700 nM) it was -0.001 ± 0.011; in assay [2] (20000 nM), 0.005 ± 0.0099; in assay [2] (60000 nM) it was 0.0195 ± 0.0021. Also, the “level (log10)” value in assay [3] (6700 nM) was -0.0295 ± 0.018; in assay [3] (20000 nM), -0.0945 ± 0.077; in assay [4] (6700 nM) it was 0.0055 ± 0.043; in assay [4] (20000 nM) it was -0.002 ± 0.04; in assay [4] (60000 nM), 0.0115 ± 0.1; in assay [5] (6700 nM) it was 0.0115 ± 0.0035. Also, the “level (log10)” value in assay [5] (20000 nM) turned out to be 0.0065 ± 0.026; in assay [5] (60000 nM) it was 0.0345 ± 0.059; in assay [6] (1500 nM), 0.0375 ± 0.021; in assay [6] (4400 nM), 0.0225 ± 0.0092; in assay [6] (13000 nM) it was 0.0165 ± 0.026; in assay [6] (40000 nM), 0.0615 ± 0.035.

Turning to CASM3C:CXCL8/IL-8, the “level (log10)” value in assay [1] (6700 nM) is 0.0035 ± 0.0035; in assay [1] (20000 nM), -0.0095 ± 0.026; in assay [1] (60000 nM), 0.0075 ± 0.025; in assay [2] (6700 nM) it was 0.0035 ± 0.012; in assay [2] (20000 nM) it was -0.0085 ± 0.032; in assay [2] (60000 nM), 0.012 ± 0.024. Besides, the “level (log10)” value in assay [3] (6700 nM) was -0.0045 ± 0.0021; in assay [3] (20000 nM), -0.043 ± 0.0057; in assay [4] (6700 nM), 0.0095 ± 0.021; in assay [4] (20000 nM) it was 0.006 ± 0.016; in assay [4] (60000 nM) it was 0.0005 ± 0.052; in assay [5] (6700 nM), 0.0125 ± 0.0035. Besides, the “level (log10)” value in assay [5] (20000 nM) stood at 0.0095 ± 0.032; in assay [5] (60000 nM), 0.026 ± 0.045; in assay [6] (1500 nM), 0.0365 ± 0.057; in assay [6] (4400 nM) it was 0.0255 ± 0.06; in assay [6] (13000 nM), 0.034 ± 0.05; in assay [6] (40000 nM), 0.063 ± 0.061.

Take HDF3CGF:M-CSF: the “level (log10)” value in assay [1] (6700 nM) was -0.038 ± 0.05; in assay [1] (20000 nM), -0.062 ± 0.05; in assay [1] (60000 nM), -0.0835 ± 0.019; in assay [2] (6700 nM) it was 0.0085 ± 0.00071; in assay [2] (20000 nM), 0.0255 ± 0.0078; in assay [2] (60000 nM), 0.0135 ± 0.029. Also, the “level (log10)” value in assay [3] (6700 nM) was 0.0085 ± 0.013; in assay [3] (20000 nM), -0.001 ± 0.0028; in assay [4] (6700 nM) it was -0.003 ± 0.02; in assay [4] (20000 nM), -0.0035 ± 0.016; in assay [4] (60000 nM), 0 ± 0.0099; in assay [5] (6700 nM) it was -0.008. Also, the “level (log10)” value in assay [5] (20000 nM) is -0.0015 ± 0.0092; in assay [5] (60000 nM), -0.014 ± 0.0014; in assay [6] (1500 nM), -0.051 ± 0.076; in assay [6] (4400 nM), -0.0445 ± 0.077; in assay [6] (13000 nM), -0.033 ± 0.1; in assay [6] (40000 nM), -0.0655 ± 0.17.

As for HDF3CGF:CXCL10/IP-10, the “level (log10)” value is 0.0085 ± 0.0078 in assay [1] (6700 nM); -0.013 ± 0.016 in assay [1] (20000 nM); -0.0205 ± 0.06 in assay [1] (60000 nM); -0.017 ± 0.0071 in assay [2] (6700 nM); -0.021 ± 0.0071 in assay [2] (20000 nM); -0.024 ± 0.016 in assay [2] (60000 nM). For the same test system, the “level (log10)” value in assay [3] (6700 nM) was -0.01; in assay [3] (20000 nM) it was -0.141 ± 0.012; in assay [4] (6700 nM) it was -0.013 ± 0.021; in assay [4] (20000 nM), -0.01 ± 0.016; in assay [4] (60000 nM), -0.0235 ± 0.0035; in assay [5] (6700 nM), 0.0065 ± 0.0092. The “level (log10)” value is 0.0155 ± 0.013 in assay [5] (20000 nM); 0.0105 ± 0.016 in assay [5] (60000 nM); 0.013 ± 0.0028 in assay [6] (1500 nM); 0.002 ± 0.0057 in assay [6] (4400 nM); 0.0035 ± 0.00071 in assay [6] (13000 nM); -0.001 ± 0.016 in assay [6] (40000 nM).

On to MyoF:MMP-1, for which the “level (log10)” value was -0.022 in assay [1] (6700 nM); -0.05 ± 0.0057 in assay [1] (20000 nM); -0.005 ± 0.047 in assay [1] (60000 nM); -0.0215 ± 0.023 in assay [2] (6700 nM); -0.0075 ± 0.0092 in assay [2] (20000 nM); 0.0165 ± 0.047 in assay [2] (60000 nM). For the same test system, the “level (log10)” value is -0.0565 ± 0.052 in assay [3] (6700 nM); -0.0005 ± 0.018 in assay [3] (20000 nM); -0.043 ± 0.05 in assay [4] (6700 nM); -0.026 ± 0.054 in assay [4] (20000 nM); -0.0195 ± 0.018 in assay [4] (60000 nM); 0.002 ± 0.0057 in assay [5] (6700 nM). Moreover, the “level (log10)” value in assay [5] (20000 nM) is 0.007 ± 0.023; in assay [5] (60000 nM), 0.032 ± 0.076; in assay [6] (1500 nM), 0.002 ± 0.027; in assay [6] (4400 nM), -0.017 ± 0.02; in assay [6] (13000 nM), -0.004 ± 0.018; in assay [6] (40000 nM), 0.0175 ± 0.0021.
